Source: patent publication US6156291A, “Chemical and pharmacological standardization of herbal extracts” (CV Technologies Inc., priority 1998, dated 2000)
Entries after “also recorded” stand apart in the source; their conditions may differ.

Key:
rat brain synaptosomes [1] = experiment: choline uptake in rat brain synaptosomes; assay type: biochemical; details: for effect on choline uptake (FIG. 1): various doses, rat brain synaptosomes
Excerpt: (1) Effects of CVT-E001 on choline uptake in isolated brain synaptosomes in rats
(§1) Choline uptake has been examined in synaptosome preparations from whole brain and hippocampus in the presence of Rb1, CVT-E001 and HC3.
The magnitude of these effects are consistent with the previous studies.

rat brain synaptosomes [2] = details: literature (Benishin, 1992); Rb1 positive control, HC3 negative control; cited from earlier work
[3] = tested on: dorsal and sympathetic ganglia; details: literature (Saito 1985), cited from earlier work; for neurite outgrowth by NGF: in presence of NGF; for neurite outgrowth without NGF: on its own
[4] = pure ginsenosides; literature; cited from earlier work
[5] = tested on: synaptosomes prepared from rat hippocampus; experiment: choline uptake into synaptosomes prepared from rat hippocampus; assay type: biochemical; details: Table 2
Excerpt: as §1
This observation is not unexpected as many pharmacological compounds have an optimal dose range and more or less of the material results in less biological activity.

[6] = Morris Water Maze and Scopolamine induced Amnesia Model; assay type: in vivo, rat
Excerpt: As CVT-E001 is a mixture of ginsenosides, it may not have the same properties as pure saponins. […] Rats are required to learn the location of a hidden platform in a murky swimming pool. […] The effects of CVT-E001 on memory can also be examined in scopolamine induced amnesia (scopolamine interferes with the cholinergic neurotransmitter system and impedes learning and memory). If CVT-E001 enhances learning and/or memory it should facilitate task acquisition and/or protect against memory loss in scopolamine treated animals.
A study was designed of spatial learning and memory using the Morris water maze and scopolamine induced amnesia with CVT-E001 as the test compound. The specific aim of the experiment was to test if CVT-E001 affected the acquisition and/or retention of a new task in the presence of scopolamine induced amnesia. Rats (S/D strain males, 200-250 g, about 8 weeks old) are initially divided into two groups and fed either water (0.5 ml) or CVT-E001 (200 mg/kg/day in 0.5 ml water by gavage) for the duration of the experiment. Eight days after the initiation of CVT-E001 administration rats are given the task of learning the position of a platform hidden in a pool of murky water. The rats are placed in the pool 4 times per day for 5 days and the time required to find the platform in recorded (maximum duration 5 minutes). This time becomes shorter as the rats learn the task. On day 14 the two groups of rats are further subdivided into four groups. Six rats from each of the initial two groups receive saline injections while the remaining six rats from each initial group receive scopolamine (2 mg/kg) prior to being required to find the platform which has been moved to a new location (3 trials, maximum duration 3 minutes within 30 minutes of receiving either saline or scopolamine injection. On day 15 the procedure for day 14 was repeated with the platform remaining located in the position designated on day 14. On day 16, the procedure from day 14 was again followed except that the platform was moved to a location on the opposite side of the pool. On day 17 the procedure followed on day 14 was repeated except that the platform remains in the location designated on day 16. In each instance the time to locate the platform is recorded.
This experiment was repeated twice using 24 rats each time. The data from the two experiments was combined. One CVT-E001 treated rat died from accidental administration of CVT-E001 into the lungs.
Statistical analysis was by analysis of variance on log transformed data. As a posteriori test of significance were performed using the Newman-Keulstest.

[7] = tested on: PC12 (pheochromocytoma) cell lines; experiment: neurite outgrowth in PC12 cells; assay type: cell-based; details: seven days after treatment; FIGS. 26, 27
Protocol: PC12 cells were seeded and maintained in 100 cm^2 tissue culture dishes at 37° C. in RRMI1640 containing 1% antibiotics, 10% heated inactivated horse serum and 5% fetal bovine serum in a water saturated atmosphere of 95% air and 5% CO2. NIE-115 cells were maintained in a flask in 90% DMEM (Dulbecco's Modified Eagle Medium, Gibco, Grand Island, N.Y., USA) with 10% FBS and antibiotic PNS (penicillin, neomycin streptomycin). The culture plates were maintained in a temperature-controlled (37° C.) humidified atmosphere consisting of 95% room air and 5% CO2. The cells were mechanically dislodged for the experiment by forceful aspiration of the medium through a Pasteur pipette and plated in 35 mm collagen-coated tissue culture dishes containing a total of 2.0 ml of complete medium at a density of 1×10^4 cells/ml. […]
The cellular response to Nerve Growth Factor (NGF) and samples were determined by counting the number of cells contained processes in PC12 cells. […]
The cells and neurites were counted as follows.
Cells with circular or global shapes and no neurite outgrowth were scored as 0 (S0).
Cells with more than two small neurites on the cell bodies were scored as S2.
Cells with one or two neurites with the length of at least two times diameter as their body were scored as S3.
Cells with more than two long neurites were scored as S4.
The neurite index was calculated as below: […]

[8] = tested on: PC12 (pheochromocytoma) cell lines; details: literature; cited from earlier work

| Molecule | effect on choline uptake (FIG. 1) (rat brain synaptosomes [1]) | choline uptake, previously demonstrated (rat brain synaptosomes [2]) | neurite outgrowth by NGF [3] | neurite outgrowth without NGF [3] | learning and memory [4] | further results |
| --- | --- | --- | --- | --- | --- | --- |
| C[N+]1(C)CCOC(O)(c2ccc(-c3ccc(C4(O)C[N+](C)(C)CCO4)cc3)cc2)C1 (stereo not shown) [HC3] | inhibits choline uptake | inhibit choline uptake | – | – | – | – |
| CC(C)=CCC[C@](C)(O[C@@H]1O[C@H](CO[C@@H]2O[C@H](CO)[C@@H](O)[C@H](O)[C@H]2O)[C@@H](O)[C@H](O)[C@H]1O)[C@H]1CC[C@]2(C)[C@@H]1[C@H](O)C[C@@H]1[C@@]3(C)CC[C@H](O[C@@H]4O[C@H](CO)[C@@H](O)[C@H](O)[C@H]4O[C@@H]4O[C@H](CO)[C@@H](O)[C@H](O)[C@H]4O)C(C)(C)[C@@H]3CC[C@]12C [Rb1, ginsenoside Rb1] | promotes choline uptake | increase choline uptake into synaptosomes | enhance neurite outgrowth of dorsal and sympathetic ganglia | no effect on its own | enhance learning and memory; also recorded: improve memory in experimental animals | stimulation of choline uptake (in words) (rat brain synaptosomes [1]; Table 3): significantly stimulate choline uptake; potency ranking, choline uptake (rat brain synaptosomes [1]; Table 3, CVT-E001 contains 8.1% Rb1, 32.4% total ginsenosides, n = 4): CVTE001 > TS > Rb1; choline uptake (in words) [5]: increase choline uptake |
| CC(C)=CCC[C@](C)(O[C@@H]1O[C@H](CO)[C@@H](O)[C@H](O)[C@H]1O)[C@H]1CC[C@]2(C)[C@@H]1[C@H](O)C[C@@H]1[C@@]3(C)CC[C@H](O[C@@H]4O[C@H](CO)[C@@H](O)[C@H](O)[C@H]4O[C@@H]4O[C@H](CO)[C@@H](O)[C@H](O)[C@H]4O)C(C)(C)[C@@H]3CC[C@]12C [Rd, ginsenoside Rd] | – | – | enhance neurite outgrowth of dorsal and sympathetic ganglia | no effect on its own | – | – |
| CC(C)=CCC[C@](C)(O[C@@H]1O[C@H](CO)[C@@H](O)[C@H](O)[C@H]1O)[C@H]1CC[C@]2(C)[C@@H]1[C@H](O)C[C@@H]1[C@@]3(C)CC[C@H](O)C(C)(C)[C@@H]3[C@@H](O[C@@H]3O[C@H](CO)[C@@H](O)[C@H](O)[C@H]3O)C[C@]12C [Rg1, ginsenoside Rg1] | – | – | – | – | enhance learning and memory; also recorded: improve memory in experimental animals | – |
| CN1[C@@H]2C[C@@H](OC(=O)[C@H](CO)c3ccccc3)C[C@H]1[C@@H]1O[C@@H]12 [scopolamine] | – | – | – | – | – | latency remembering platform location, combined trials ([6]; day 15, scopolamine 2 mg/kg, CVT-E001 200 mg/kg/day, FIG. 19): significantly greater latency than all other groups; latency to second new platform location, trial 3 ([6]; day 16, scopolamine 2 mg/kg, FIG. 20): demonstrated a scopolamine induced learning deficit; latency remembering second platform location, first trial ([6]; day 17, scopolamine 2 mg/kg with or without CVT-E001 200 mg/kg/day, FIG. 22): significantly impaired; latency remembering second platform location, combined trials ([6]; day 17, scopolamine 2 mg/kg with or without CVT-E001 200 mg/kg/day, FIG. 23): demonstrate a learning deficit |
| NGF: Nerve Growth Factor, prototype neurotrophin | – | – | – | – | – | neurite outgrowth in PC12 [7]: increased neurite outgrowth in PC12 in a dose-dependent manner; PC12 response to NGF treatment [8]: neurite outgrowth and electrical excitability |
